# Reference: PubChem BioAssay (NCI)
#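 1) Cells in 96-well plates. 2) Compound, 48 h, 5 concentrations. 3) Linear interpolation between surrounding doses. 4) Unreached endpoint = highest concentration. GI50 is the concentration that inhibits growth by half. TGI is the concentration that stops growth completely.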
# Columns and labels:
# Test in all cases: NCI tumour cell line growth inhibition, 48 h
# UACC-257 melanoma = test system: UACC-257 melanoma
# ACHN renal = test system: ACHN renal
# T-47D breast = test system: T-47D breast
# MCF7 breast = test system: MCF7 breast
# CCRF-CEM leukemia = test system: CCRF-CEM leukemia
# U251 CNS = test system: U251 CNS
# SK-MEL-5 melanoma = test system: SK-MEL-5 melanoma
# KM12 colon = test system: KM12 colon
# DU-145 prostate = test system: DU-145 prostate
# HCT-15 colon = test system: HCT-15 colon
# SN12C renal = test system: SN12C renal
# UO-31 renal = test system: UO-31 renal
# CAKI-1 renal = test system: CAKI-1 renal
# MDA-MB-435 = test system: MDA-MB-435
# TK-10 renal = test system: TK-10 renal
# OVCAR-5 ovarian = test system: OVCAR-5 ovarian
# SF-539 CNS = test system: SF-539 CNS
# NCI-H23 lung = test system: NCI-H23 lung
# RXF 393 renal = test system: RXF 393 renal
# MDA-MB-231 breast = test system: MDA-MB-231 breast
# HL-60(TB) leukemia = test system: HL-60(TB) leukemia
# SNB-19 CNS = test system: SNB-19 CNS
# OVCAR-3 ovarian = test system: OVCAR-3 ovarian
# SF-295 CNS = test system: SF-295 CNS
# EKVX NSCLC = test system: EKVX NSCLC
# OVCAR-8 ovarian = test system: OVCAR-8 ovarian
# MALME-3M melanoma = test system: MALME-3M melanoma
# COLO 205 colon = test system: COLO 205 colon
# UACC-62 melanoma = test system: UACC-62 melanoma
# 786-0 renal = test system: 786-0 renal
# K-562 leukemia = test system: K-562 leukemia
# IGROV1 ovarian = test system: IGROV1 ovarian
# SK-MEL-28 melanoma = test system: SK-MEL-28 melanoma
# SF-268 CNS = test system: SF-268 CNS
# RPMI-8226 leukemia = test system: RPMI-8226 leukemia
# NCI-H460 lung = test system: NCI-H460 lung
# HCC-2998 colon = test system: HCC-2998 colon
# MOLT-4 leukemia = test system: MOLT-4 leukemia
# HCT-116 colon = test system: HCT-116 colon
# SR leukemia = test system: SR leukemia
# PC-3 prostate = test system: PC-3 prostate
# SNB-75 CNS = test system: SNB-75 CNS
# OVCAR-4 ovarian = test system: OVCAR-4 ovarian
# NCI/ADR-RES ovarian = test system: NCI/ADR-RES ovarian
# NCI-H522 lung = test system: NCI-H522 lung
# A498 renal = test system: A498 renal
# BT-549 breast = test system: BT-549 breast
# SK-MEL-2 melanoma = test system: SK-MEL-2 melanoma
# HOP-92 NSCLC = test system: HOP-92 NSCLC
# HS 578T breast = test system: HS 578T breast
# HOP-62 NSCLC = test system: HOP-62 NSCLC
# LOX IMVI melanoma = test system: LOX IMVI melanoma
# SK-OV-3 ovarian = test system: SK-OV-3 ovarian
# HT29 colon = test system: HT29 colon
# A549 NSCLC = test system: A549 NSCLC
compound,measurement,setting,value
CCOC(=O)c1ccc2c(c1)nc(-c1ccc(Cl)cc1)n2-c1cc(C(C)(C)C)[nH]n1,GI50,UACC-257 melanoma,3.41 µM
same,TGI,UACC-257 melanoma,> 100 µM
same,GI50,ACHN renal,3.28 µM
same,TGI,ACHN renal,10.1 µM
same,GI50,T-47D breast,3.78 µM
same,TGI,T-47D breast,> 100 µM
same,GI50,MCF7 breast,2780 nM
same,TGI,MCF7 breast,12.2 µM
same,GI50,CCRF-CEM leukemia,3.06 µM
same,TGI,CCRF-CEM leukemia,34.1 µM
same,GI50,U251 CNS,3.04 µM
same,TGI,U251 CNS,> 100 µM
same,GI50,SK-MEL-5 melanoma,1330 nM
same,TGI,SK-MEL-5 melanoma,3.39 µM
same,GI50,KM12 colon,2780 nM
same,TGI,KM12 colon,14.2 µM
same,GI50,DU-145 prostate,2850 nM
same,GI50,HCT-15 colon,3.27 µM
same,TGI,HCT-15 colon,> 100 µM
same,GI50,SN12C renal,3.33 µM
same,TGI,SN12C renal,40.6 µM
same,GI50,UO-31 renal,2760 nM
same,TGI,UO-31 renal,45.7 µM
same,GI50,CAKI-1 renal,2770 nM
same,TGI,CAKI-1 renal,> 100 µM
same,GI50,MDA-MB-435,717 nM
same,TGI,MDA-MB-435,7.1 µM
same,GI50,TK-10 renal,3.62 µM
same,TGI,TK-10 renal,> 100 µM
same,GI50,OVCAR-5 ovarian,3.68 µM
same,TGI,OVCAR-5 ovarian,> 100 µM
same,GI50,SF-539 CNS,2160 nM
same,TGI,SF-539 CNS,4.99 µM
same,GI50,NCI-H23 lung,2720 nM
same,TGI,NCI-H23 lung,> 100 µM
same,GI50,RXF 393 renal,1810 nM
same,TGI,RXF 393 renal,5.87 µM
same,GI50,MDA-MB-231 breast,4.2 µM
same,TGI,MDA-MB-231 breast,40.8 µM
same,GI50,HL-60(TB) leukemia,3.65 µM
same,TGI,HL-60(TB) leukemia,9.2 µM
same,GI50,SNB-19 CNS,3.32 µM
same,TGI,SNB-19 CNS,> 100 µM
same,GI50,OVCAR-3 ovarian,2050 nM
same,TGI,OVCAR-3 ovarian,5.65 µM
same,GI50,SF-295 CNS,2620 nM
same,TGI,SF-295 CNS,11.4 µM
same,GI50,EKVX NSCLC,3.02 µM
same,TGI,EKVX NSCLC,> 100 µM
same,GI50,OVCAR-8 ovarian,2550 nM
same,TGI,OVCAR-8 ovarian,12.7 µM
same,GI50,MALME-3M melanoma,2750 nM
same,TGI,MALME-3M melanoma,9.18 µM
same,GI50,COLO 205 colon,2230 nM
same,TGI,COLO 205 colon,4.75 µM
same,GI50,UACC-62 melanoma,1670 nM
same,TGI,UACC-62 melanoma,4 µM
same,GI50,786-0 renal,3.17 µM
same,TGI,786-0 renal,> 100 µM
same,GI50,K-562 leukemia,2720 nM
same,TGI,K-562 leukemia,16.1 µM
same,GI50,IGROV1 ovarian,3.77 µM
same,TGI,IGROV1 ovarian,> 100 µM
same,GI50,SK-MEL-28 melanoma,2490 nM
same,TGI,SK-MEL-28 melanoma,12.2 µM
same,GI50,SF-268 CNS,3.13 µM
same,TGI,SF-268 CNS,13.8 µM
same,GI50,RPMI-8226 leukemia,2990 nM
same,TGI,RPMI-8226 leukemia,22.9 µM
same,GI50,NCI-H460 lung,2940 nM
same,TGI,NCI-H460 lung,8.02 µM
same,GI50,HCC-2998 colon,3.03 µM
same,TGI,HCC-2998 colon,16.2 µM
same,GI50,MOLT-4 leukemia,3.28 µM
same,TGI,MOLT-4 leukemia,30.4 µM
same,GI50,HCT-116 colon,3.12 µM
same,TGI,HCT-116 colon,29.9 µM
same,GI50,SR leukemia,635 nM
same,TGI,SR leukemia,8.16 µM
same,GI50,PC-3 prostate,2820 nM
same,TGI,PC-3 prostate,> 100 µM
same,GI50,SNB-75 CNS,2530 nM
same,TGI,SNB-75 CNS,> 100 µM
same,GI50,OVCAR-4 ovarian,3.64 µM
same,TGI,OVCAR-4 ovarian,> 100 µM
same,GI50,NCI/ADR-RES ovarian,2130 nM
same,TGI,NCI/ADR-RES ovarian,6.65 µM
same,GI50,NCI-H522 lung,2520 nM
same,TGI,NCI-H522 lung,6.66 µM
same,GI50,A498 renal,2190 nM
same,TGI,A498 renal,6.51 µM
same,GI50,BT-549 breast,2880 nM
same,TGI,BT-549 breast,8.4 µM
same,GI50,SK-MEL-2 melanoma,1930 nM
same,TGI,SK-MEL-2 melanoma,4.4 µM
same,GI50,HOP-92 NSCLC,1020 nM
same,TGI,HOP-92 NSCLC,4.79 µM
same,GI50,HS 578T breast,2760 nM
same,TGI,HS 578T breast,8.57 µM
same,GI50,HOP-62 NSCLC,3.69 µM
same,TGI,HOP-62 NSCLC,> 100 µM
same,GI50,LOX IMVI melanoma,2730 nM
same,TGI,LOX IMVI melanoma,10.8 µM
same,GI50,SK-OV-3 ovarian,3.43 µM
same,TGI,SK-OV-3 ovarian,36.9 µM
same,GI50,HT29 colon,2790 nM
same,TGI,HT29 colon,7.17 µM
same,GI50,A549 NSCLC,3.13 µM
same,TGI,A549 NSCLC,> 100 µM
